Test results published in ChEMBL document CHEMBL1133931, “Anti-AIDS agents. Part 47: Synthesis and anti-HIV activity of 3-substituted 3',4'-Di-O-(S)-camphanoyl-(3'R,4'R)-(+)-cis-khellactone derivatives” (Bioorg Med Chem Lett, 2001).

Assays:
H9 [1] = assay: Inhibitory concentration against HIV-1 replication in acutely infected H9 lymphocytes; format: functional, cell-based; settings: Homo sapiens
[2] = Therapeutic index (IC50/EC50) of compound was determined in acutely infected H9 cell; format: cell-based; settings: human, acutely infected H9 cells; read-out: TI
H9 [3] = assay: Inhibitory concentration required to inhibit uninfected H9 cell growth by 50%; format: functional, cell-based; settings: Homo sapiens

Row | EC50 (H9 [1]) [nM] | Compound | selectivity ratio [2] | IC50 (H9 [3]) [nM]
1 | 1.03 | CC(=O)OCc1cc2ccc3c(c2oc1=O)[C@@H](OC(=O)C12CCC(C)(C(=O)O1)C2(C)C)[C@@H](OC(=O)C12CCC(C)(C(=O)O1)C2(C)C)C(C)(C)O3 (stereo partly drawn) | 3240 | 3340
2 | 0.119 | CC1(C)Oc2ccc3cc(C(Br)Br)c(=O)oc3c2[C@@H](OC(=O)C23CCC(C)(C(=O)O2)C3(C)C)[C@H]1OC(=O)C12CCC(C)(C(=O)O1)C2(C)C (stereo partly drawn) | 26900 | 3200
3 | 0.188 | CC1(C)Oc2ccc3cc(CO)c(=O)oc3c2[C@@H](OC(=O)C23CCC(C)(C(=O)O2)C3(C)C)[C@H]1OC(=O)C12CCC(C)(C(=O)O1)C2(C)C (stereo partly drawn) | 188000 | 35400
4 | 690 | CCN(CC)Cc1cc2ccc3c(c2oc1=O)[C@@H](OC(=O)C12CCC(C)(C(=O)O1)C2(C)C)[C@@H](OC(=O)C12CCC(C)(C(=O)O1)C2(C)C)C(C)(C)O3 (stereo partly drawn) | 62 | 43000
5 |  | CC1(C)Oc2ccc3ccc(=O)oc3c2[C@@H](OC(=O)C23CCC(C)(C(=O)O2)C3(C)C)[C@H]1OC(=O)C12CCC(C)(C(=O)O1)C2(C)C (stereo partly drawn) | 137000 | 
6 | 85.4 | CC1(C)Oc2ccc3cc(CBr)c(=O)oc3c2[C@@H](OC(=O)C23CCC(C)(C(=O)O2)C3(C)C)[C@H]1OC(=O)C12CCC(C)(C(=O)O1)C2(C)C (stereo partly drawn) | 40 | 3380
7 | 390 | CC1(C)Oc2ccc3cc(CN)c(=O)oc3c2[C@@H](OC(=O)C23CCC(C)(C(=O)O2)C3(C)C)[C@H]1OC(=O)C12CCC(C)(C(=O)O1)C2(C)C (stereo partly drawn) |  | 32800
